The source of these data is patent publication US20240109855A1, “ANTI-QUORUM SENSING, ANTI-BIOFILM, AND INFLAMMATION ATTENUATING COMPOUNDS, COMPOSITIONS, AND METHODS OF USING SAME” (priority 2021, published 2024).

Entries after “also recorded” stand apart in the source; their conditions may differ.

One test has as its system lasR-lasI. In words: Bioluminescence QS reporter bacteria, lasRI. Particulars: Pseudomonas aeruginosa. It is filed as cell-based, P. aeruginosa. On the procedure:
(§1) FIGS. 13A-13C include vertical bar graphs showing the dose response inhibition of QS by PL-18. Bioluminescence indicator bacteria containing the P. aeruginosa reporter genes rhlRI (13A) and lasRI (13B) were used. The reporter bacteria were incubated with and range of PL-18 concentrations or DMSO, together with (+AI) or without (−AI) the proper auto-inducer. Bioluminescence was recorded at 15 min intervals for 10 hrs at 37° C. The maximum signal in each group was normalized to the inducer's bioluminescence maximum signal with 0.5% DMSO. Mean±SD, One-way ANOVA followed by Dunett's multiple comparisons test was performed (p-value ***≤0.0002). N=9 (triplicate samples in three independent experiments). (13C) RT-qPCR of P. aeruginosa (PA01) QS genes. PA01 was co-incubated with two doses of PL-18 for seven hours, lysed and total RNA was extracted and converted to cDNA followed by target genes qPCR amplification. N≥16, Mean±SD. Two-way ANOVA, 95% confidence interval.
(§2) The inhibition of rhlR-rhlI system was slightly better than the inhibition of lasR-lasI. […] The relative transcription levels of QS genes lasR, lasI, rhlR and rhlI, was determined by RT-qPCR.

Test [1] relates to Agrobacterium tumefaciens (KYC55). The test is described as follows: Quorum sensing inhibition test with bio-reporter KYC55 (TLC overlay). On Degree of quorum sensing inhibition (QSI), KYC55: key: −: no inhibition; +: low inhibition; ++: medium inhibition; +++: strong inhibition. The class given is cell-based. In a few lines:
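Compounds (40 mM in acetonitrile, 20 μl) were spotted on TLC and overlaid with soft agar reporter cultures, incubated overnight at 30 °C. CV026 was in LB with 500 nM 3-oxo-C6 (purple pigment), and KYC55 was in AT medium with 5 nM 3-oxo-C8 and 60 μg/ml X-gal (blue). Inhibition zone diameter was measured.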

A further test relates to elastase. The test is described as follows: Elastase secretion by P. aeruginosa. It is filed as cell-based. The note with it: data not shown.
The test system of test [2] is QS genes lasR, lasI, rhlR and rhlI. The test is described as follows: RT-qPCR of P. aeruginosa (PA01) QS genes. It is filed as cell-based. Particulars: PA01 co-incubated seven hours. On the procedure:
as §1, §2

The subject of another test is rhlR-rhlI system. The test is described as follows: Bioluminescence QS reporter bacteria, rhlRI. The note with it: Pseudomonas aeruginosa. It is filed as cell-based, P. aeruginosa. On the procedure: as §1, §2
The next test relates to pyocyanin. The test is described as follows: Pyocyanin secretion by P. aeruginosa. The class given is cell-based. Particulars: cell-free culture medium, spectrometry. On the procedure: (§3) FIGS. 14A-14B include vertical bar graphs showing that PL-18 inhibition effects on secretion of virulence factors by P. aeruginosa. (14A) Pyocyanin was extracted in the chloroform-HCl method and measured in a plate-reader at 380 nm. (14B) Determination of rhamnolipids content was measured at 570 nm of the cell-free supernatant after adjustment to pH-2. All results were normalized and compere to the control group-DMSO 0.16%. Mean±SD, One-way ANOVA followed by Dunett's multiple comparisons test (p-values *≤0.0332, ***≤0.0002). N=9 (in three independent experiments).
(§4) To test whether PL-18 inhibits virulence effectors secreted by P. aeruginosa, the relative abundance of the virulence factors pyocyanin and rhamnolipids in the bacterial cell-free culture medium was determined by spectrometry.

A further test concerns rhamnolipids. In words: Rhamnolipids secretion by P. aeruginosa. The note with it: cell-free culture medium, spectrometry. The class given is cell-based. Here is the method: as §3, §4
For the next test, the system named is P. aeruginosa biofilm. The test is described as follows: P. aeruginosa biofilm formation under flow conditions (CLSM, IMARIS). The class given is cell-based. Here is the method: FIGS. 15A-15B include fluorescent micrographs and a vertical bar graph showing that Pl-18 inhibits P. aeruginosa biofilm formation. The biofilm was grown under continuous flow conditions for 72 hr with 10 μM, 40 μM PL-18 or 0.04% DMSO. CLSM images visualize viable bacteria stained green and dead bacteria red using the BacLight® Dead/Live Kit. Scanned areas were 318 μm×318 μm. (15A) IMARIS images. Scale bar is 50 μm. (15B) A graph showing the mean±SD of the biofilm volume generated from three independent sets of flow-cell experiments. Two-way ANOVA Bonferroni's multiple comparisons test, 95% confidence interval (p-values ***≤0.0002).
The anti-biofilm activity of PL-18 was tested in flow conditions for 72 hours. The biofilm was visualized by CLSM and quantified using the IMARIS software.

In the next test the test system is P. aeruginosa. The test is described as follows: Toxicity to P. aeruginosa (CFU scoring, kinetic O.D.600nm). The note with it: at the concentrations tested, data not shown. It is filed as cell-based. Here is the method: The inventors also determined the toxicity of PL-18 to P. aeruginosa. Viability was tested by scoring CFUs of PL-18 treated P. aeruginosa cultures and bacterial growth was determined by incubation with PL-18 for kinetic O.D.600nm measurements.

Usually IC50 stands for the concentration that inhibits the measured activity by half. The inhibition is the drop in the measured response relative to a control, in per cent. `COc1cc(/C=C/C(=O)N2CCC=CC2=O)cc(O)c1O` [PL-18, Dihydroxy piperlongumine]: the IC50 in the test on lasR-lasI (read-out: IC50, lasR-lasI) came out at 22 µM; with rhlR-rhlI system (read-out: IC50, rhlR-rhlI) it was 18 µM. For the same molecule, the results for the inhibition at 160 µM with lasR-lasI (read-out: lasR-lasI inhibition) and in the test on rhlR-rhlI system (read-out: Inhibition of rhlR-rhlI) were 76.8% and 85.6%, respectively. In test [1] (Table 2, piperlongumine derivatives), the “Degree of quorum sensing inhibition (QSI), KYC55” value is “+++”. Also, the “QSI activity against KYC55, in words” value in [1] (running text) was “strong quorum sensing inhibition”. The “Inhibition of elastase secretion” value with elastase is recorded as “not shown to inhibit; also recorded: not found to inhibit”. Further, the “Relative transcription levels of QS genes lasR, lasI, rhlR and rhlI” value in test [2] is listed as “strongly decreased”. In addition, the “Inhibition of pyocyanin secretion” value with pyocyanin was “inhibit both virulence factors in a dose dependent manner; also recorded: effectively attenuate”. Further, the “Inhibition of rhamnolipids secretion” value with rhamnolipids is on record as “inhibit both virulence factors in a dose dependent manner; also recorded: effectively attenuate”. For the same molecule, the inhibition at 40 µM in the test on P. aeruginosa biofilm (Pseudomonas aeruginosa, 72 h, read-out: Inhibition of P. aeruginosa biofilm formation) worked out at 85%. Moreover, the “Attenuation of biofilm formation, in words” value in the test on P. aeruginosa biofilm (running text) is “effectively attenuate”. The “Effect on P. aeruginosa growth (O.D.600nm)” value in the test with P. aeruginosa is on record as “did not affect P. aeruginosa growth”. Besides, the “Toxicity to P. aeruginosa (viability, CFUs)” value in the test with P. aeruginosa is recorded as “non-toxic”.
